Where a SMILES comes first, the peptide text is derived from it. The star is where a group is joined. Palmitoyl = CCCCCCCCCCCCCCCC(=O)*
What was measured:
Assay type in all cases: cell-based
[1] = test system: HIV-1 NL4-3 gp41 V38A/N42T pseudovirus; settings: Table 3; for Fold change in IC50: V38A/N42T relative to WT NL4-3; for IC50: V38A/N42T, TZM-bl cells, 48 h, luciferase, means, triplicate, repeated three times
Description: (§1) We selected LP-40-induced drug resistance typical point mutations and combination mutation pseudoviruses to evaluate the current representative membrane fusion inhibitors.
(§2) The infectivity of HIV Env mutants and the inhibitory activities of membrane fusion inhibitors on mutants in TZM-bl cells were measured using a single-cycle infection assay as described previously. Briefly, the HIV pseudovirus was packed using an Env-coding plasmid, and pSG3ΔEnv was co-transfected into HEK293T cells. pSG3ΔEnv encodes an Env-defective, luciferase-expressing HIV-1 genome. After the pseudoviruses were harvested and filtrated, the amount of pseudoviruses was fixed via P24 antigen, and their infectivity was determined in TZM-bl cells. In order to measure the inhibitory activities of the inhibitors, inhibitors diluted serially 3-fold were mixed with an equal volume of pseudoviruses, and then 100 µL 1 × 10^5/mL TZM-bl cells were added to the mixture and incubated at 37 °C with 5% CO2 for 48 h. After that, TZM-bl cells were lysed using reporter lysis buffer, and IC50 values were calculated according to luciferase activity measured by luciferase assay reagents and a luminescence counter (Promega, Madison, WI, USA).

[2] = test system: HIV-1 NL4-3 gp41 L33S/V38A/N42T pseudovirus; settings: Table 3; for Fold change in IC50: L33S/V38A/N42T relative to WT NL4-3; for IC50: L33S/V38A/N42T, TZM-bl cells, 48 h, luciferase, means, triplicate, repeated three times
Description: as §1, §2

[3] = test system: HIV-1 NL4-3 gp41 NDQEEDYN/L33S/V38A/N42T pseudovirus; settings: Table 3; for Fold change in IC50: NDQEEDYN/L33S/V38A/N42T relative to WT NL4-3; for IC50: NDQEEDYN/L33S/V38A/N42T, TZM-bl cells, 48 h, luciferase, means, triplicate, repeated three times
Description: as §1, §2

[4] = test system: HIV-1 NL4-3 gp41 L33S/I37T pseudovirus; settings: Table 3; for Fold change in IC50: L33S/I37T relative to WT NL4-3; for IC50: L33S/I37T, TZM-bl cells, 48 h, luciferase, means, triplicate, repeated three times
Description: as §1, §2

[5] = test system: HIV-1 NL4-3 gp41 NDQEEDYN/L33S/I37T pseudovirus; settings: Table 3; for Fold change in IC50: NDQEEDYN/L33S/I37T relative to WT NL4-3; for IC50: NDQEEDYN/L33S/I37T, TZM-bl cells, 48 h, luciferase, means, triplicate, repeated three times
Description: as §1, §2

[6] = test system: HIV-1 NL4-3 gp41 NDQEEDYN pseudovirus; settings: Table 3; for Fold change in IC50: NDQEEDYN relative to WT NL4-3; for IC50: NDQEEDYN (E109N, N113D, E119Q, D121E, N125E, S129D, H132Y, S133N), TZM-bl cells, 48 h, luciferase, means, triplicate, repeated three times
Description: as §1, §2

[7] = test system: HIV-1 NL4-3 pseudovirus (WT); settings: Table 3; for Fold change in IC50: WT NL4-3 reference; for IC50: WT NL4-3, TZM-bl cells, 48 h, luciferase, means, triplicate, repeated three times
Description: as §2

[8] = test system: HIV-1 NL4-3 gp41 I69V pseudovirus; settings: Table 3; for Fold change in IC50: I69V relative to WT NL4-3; for IC50: I69V, TZM-bl cells, 48 h, luciferase, means, triplicate, repeated three times
Description: (§3) Viral RNA was extracted from the supernatant, and, after reverse transcription, the cDNA was amplified using PCR. These amplified DNA were connected to the T-Easy vector and transformed to Trans 2-Blue Chemically Competent Cells. These sequences were determined via sequencing. The expression plasmids, which contained different HIV-1NL4-3 Env mutants, were constructed using DNA assembly (NEBuilder® HiFi DNA Assembly Master Mix). In brief, two primers were used to amplify Env, and the other two primers were used to amplify the vector fragment. The products of PCR were purified with a 20–25 bp overlap in the terminal of Env and the vector fragment Env and the vector fragment were added to the DNA assembly master mix at […] for 15 min and then transformed to Trans 2-Blue Chemically Competent Cells. Additionally, a single-point mutation was generated using double-stranded DNA templates and a selection of mutants with a restriction enzyme (DpnI) as described previously.
as §2

[9] = test system: HIV-1 NL4-3 gp41 L33S pseudovirus; settings: Table 3; for Fold change in IC50: L33S relative to WT NL4-3; for IC50: L33S, TZM-bl cells, 48 h, luciferase, means, triplicate, repeated three times
Description: as §3, §2

[10] = test system: HIV-1 NL4-3 gp41 I37T pseudovirus; settings: Table 3; for Fold change in IC50: I37T relative to WT NL4-3; for IC50: I37T, TZM-bl cells, 48 h, luciferase, means, triplicate, repeated three times
Description: as §3, §2

Row | Structure (SMILES) | Fold change in IC50 [1] | Fold change in IC50 [2] | Fold change in IC50 [3] | Fold change in IC50 [4] | Fold change in IC50 [5] | Fold change in IC50 [6] | Fold change in IC50 [7] | Fold change in IC50 [8] | Fold change in IC50 [9] | Fold change in IC50 [10] | IC50 [1] | IC50 [2] | IC50 [3] | IC50 [4] | IC50 [5] | IC50 [6] | IC50 [7] | IC50 [8] | IC50 [9] | IC50 [10]
1 | CCCCCCCCCCCCCCCC(=O)NCCCC[C@H](NC(=O)[C@H](CC(C)C)NC(=O)[C@H](CC(C)C)NC(=O)[C@H](CCC(=O)O)NC(=O)[C@H](CCC(=O)O)NC(=O)[C@@H](NC(=O)[C@H](CCCCN)NC(=O)[C@H](CCCCN)NC(=O)[C@H](CCC(=O)O)NC(=O)[C@H](CC(C)C)NC(=O)[C@H](CCC(=O)O)NC(=O)[C@H](CCC(=O)O)NC(=O)[C@@H](NC(=O)[C@H](CCCCN)NC(=O)[C@H](CCCCN)NC(=O)[C@H](CCC(=O)O)NC(=O)[C@H](Cc1c[nH]c2ccccc12)NC(=O)[C@H](CCC(=O)O)NC(=O)[C@H](CCC(=O)O)NC(=O)[C@H](Cc1c[nH]c2ccccc12)NC(=O)[C@@H](NC(=O)[C@H](CCSC)NC(=O)[C@H](CCC(=O)O)NC(C)=O)[C@@H](C)O)C(C)C)[C@@H](C)CC)C(N)=O [LP-19] (Ac-EMTWEEWEKKVEELEKKIEELLK(Palmitoyl)-NH2) | 0.66 fold | 0.56 fold | 1.48 fold | 1.25 fold | 3.04 fold | 1.68 fold | 1.00 fold | 1.00 fold | 1.61 fold | 1.62 fold |  |  |  |  |  |  |  |  |  | 
2 | CC[C@H](C)[C@H](NC(=O)[C@H](CCC(=O)O)NC(=O)[C@H](CCCNC(=N)N)NC(=O)[C@H](CCC(=O)O)NC(=O)[C@H](Cc1c[nH]c2ccccc12)NC(=O)[C@@H](NC(=O)[C@H](CCC(=O)O)NC(=O)[C@H](Cc1c[nH]c2ccccc12)NC(=O)[C@H](CO)NC(C)=O)[C@@H](C)O)C(=O)N[C@@H](CCC(=O)O)C(=O)N[C@@H](CC(N)=O)C(=O)N[C@@H](Cc1ccc(O)cc1)C(=O)N[C@H](C(=O)N[C@@H](CCCNC(=N)N)C(=O)N[C@@H](CCC(N)=O)C(=O)N[C@H](C(=O)N[C@@H](Cc1ccc(O)cc1)C(=O)N[C@@H](CCCNC(=N)N)C(=O)N[C@H](C(=O)N[C@@H](CC(C)C)C(=O)N[C@@H](CCC(=O)O)C(=O)N[C@@H](CCC(=O)O)C(=O)N[C@@H](CO)C(=O)N[C@@H](CCC(N)=O)C(=O)N[C@@H](CCC(=O)O)C(=O)N[C@@H](CCC(N)=O)C(=O)N[C@@H](CCC(N)=O)C(=O)N[C@@H](CC(=O)O)C(=O)N[C@@H](CCCNC(=N)N)C(=O)N[C@@H](CC(N)=O)C(=O)N[C@@H](CCC(=O)O)C(=O)N[C@@H](CCCNC(=N)N)C(=O)N[C@@H](CC(=O)O)C(=O)N[C@@H](CC(C)C)C(=O)N[C@@H](CC(C)C)C(=O)N[C@@H](CCC(=O)O)C(N)=O)[C@@H](C)CC)[C@@H](C)CC)[C@@H](C)O [SFT] (Ac-SWETWEREIENYTRQIYRILEESQEQQDRNERDLLE-NH2) | 74.48 fold | 166.68 fold | 473.54 fold | 14.72 fold | 70.71 fold | 5.15 fold | 1.00 fold | 1.07 fold | 3.00 fold | 7.21 fold | 116 nM | 260 nM | 739 nM | 23 nM | 110 nM | 8.03 nM | 1.56 nM | 1.67 nM | 4.67 nM | 11.2 nM
3 | CC[C@H](C)[C@H](NC(=O)[C@H](CCC(N)=O)NC(=O)[C@H](C)NC(=O)[C@H](CCC(N)=O)NC(=O)[C@H](CCC(=O)O)NC(=O)[C@H](CC(C)C)NC(=O)[C@H](CC(C)C)NC(=O)[C@H](C)NC(=O)[C@@H](NC(=O)[C@@H](NC(=O)[C@H](CCCCN)NC(=O)[C@H](CCC(N)=O)NC(=O)[C@H](CCC(=O)O)NC(=O)[C@H](Cc1c[nH]c2ccccc12)NC(=O)[C@H](CCC(=O)O)NC(=O)[C@H](CCC(N)=O)NC(=O)[C@H](Cc1c[nH]c2ccccc12)NC(C)=O)[C@@H](C)CC)[C@@H](C)O)C(=O)N[C@@H](CCC(N)=O)C(=O)N[C@@H](CCC(N)=O)C(=O)N[C@@H](CCC(=O)O)C(=O)N[C@@H](CCCCN)C(=O)N[C@@H](CC(N)=O)C(=O)N[C@@H](CCC(=O)O)C(=O)N[C@@H](Cc1ccc(O)cc1)C(=O)N[C@@H](CCC(=O)O)C(=O)N[C@@H](CC(C)C)C(=O)N[C@@H](CCC(N)=O)C(=O)N[C@@H](CCCCN)C(=O)N[C@@H](CC(C)C)C(=O)N[C@@H](CC(=O)O)C(=O)N[C@@H](CCCCN)C(=O)N[C@@H](Cc1c[nH]c2ccccc12)C(=O)N[C@@H](C)C(=O)N[C@@H](CO)C(=O)N[C@@H](CC(C)C)C(=O)N[C@@H](Cc1c[nH]c2ccccc12)C(=O)N[C@@H](CCC(=O)O)C(=O)N[C@@H](Cc1c[nH]c2ccccc12)C(=O)N[C@@H](Cc1ccccc1)C(N)=O [T1249] | 23.77 fold | 227.04 fold | 301.12 fold |  | 145.54 fold | 0.94 fold | 1.00 fold | 0.82 fold | 11.41 fold | 1.21 fold | 27.1 nM | 259 nM | 343 nM | 81.5 nM | 166 nM | 1.07 nM | 1.14 nM | 0.93 nM | 13 nM | 1.38 nM

— publication PMC9223764, “In Vitro Selection and Characterization of HIV-1 Variants with Increased Resistance to LP-40, Enfuvirtide-Based Lipopeptide Inhibitor” (International Journal of Molecular Sciences, 2022)
